Holding throughout (format): cell-based
The subject of test [1] is K. pneumoniae K66-45 (NDM-1). As to the kind of experiment: Microbroth dilution MIC of carbapenem with/without inhibitor. The settings on record: K. pneumoniae K66-45 NDM-1; for Meropenem activity in presence of inhibitor: inhibitor 63 mg/L. As for the experimental part: (§1) • Plate bacterial strain(s) on appropriate media: • Gram-negative bacteria with ESBLs or carbapenemases: green agar plates with 100 mg/L ampicillin • Gram-negative bacteria without β-lactamases: green agar plates • Gram-positive bacteria (Staphylococci and Enterococci): blood agar plates • Incubate o.n. at 37° C. […] (Should be used within 15 min of preparation). • Dilute the 0.5 McFarland suspension 1:100 into MH broth. […] Plate 10 μl of the dilution on MH agar plates (×2). Incubate o.n. at 37° C., count the colonies and calculate the final CFU/ml inoculum in the plate by multiplying the average number of colonies with 10000 and divide by 2. The final inoculum should be between 3-7×10^5 CFU/ml. • Add 50 μl of the prepared bacterial suspension to each well in the microtiter plate except negative growth control. Preparation of Compounds/Antibiotics • Calculate the desired concentration-range and volume of the compounds/antibiotics in the assay. […] Dilute the stock solution in MH broth. Make subsequent 2-fold dilutions in MH broth of the desired concentrations if a concentration range is to be tested (remember the extra dilution factor in the assay plate). Always include extra volume for pipetting. Take into consideration stock solutions that are made in buffers that have an effect on bacterial growth (e.g. DMSO).

In test [2] the test system is P. aeruginosa K34-7 (VIM-2). The test is described as above. The settings on record: for Meropenem activity in presence of inhibitor: inhibitor 63 mg/L. The procedure:
as §1

For the next test, the system named is human hepG2 cells. Put plainly: In vitro toxicity in human hepG2 cells (AlamarBlue viability). The procedure:
For viability assays, cells were seeded in white 96-well Nunclon plates at a density of 20,000 cells/well and left overnight to adhere before experiments were conducted. Zn chelators dissolved in DMSO were added to white 96-well plates containing 20000 HepG2 cells/well at concentrations ranging from 1 to 1×10^−6 mM (max DMSO concentration never exceeded 1%) and incubated for 24 hours at 37° C. After 24 hours, AlamarBlue® cell viability reagent (Thermo Fisher, Carlsbad, USA) was added (10% final concentration) and incubated for 4 hours at 37° C.
A general note: The colour change of resazurin is a common sign of viable cells or microbes.

The subject of test [3] is resistant gram-negative MBL-based bacteria. Put plainly: MICx: adjuvant concentration giving carbapenem MIC ≤ 2 mg/L. The procedure: as §1
Setting [4] is: Homo sapiens, HepG2, estimated values (footnote c), read-out: IC50h.
Where [5] appears, read: human hepG2 cells, 24 hours, AlamarBlue, 8 replicates, read-out: IC50.
The mark [6] stands for this setting: lowest concentration of compound X that results in a MIC value of ≤ 2 mg/L for carbapenem antibiotics.
Setting [7] is: human hepG2 cells, read-out: IC50h.
The mark [8] stands for this setting: Homo sapiens, HepG2, read-out: IC50h.

The text below walks through data of patent publication US11649222B2, “Compounds” (UNIVERSITETET I OSLO, priority 2016, dated 2023).

Where a name gives a salt, the structure may show the parent alone. Read-outs that look alike come from different tables or passages of the source. Marks after values point to notes of the source that are not given here. Where only a bound is given, the exact number is not on record here.

As usually defined, the MIC is the lowest concentration that inhibits growth of the organism. For `C[C@@H](O)[C@H]1C(=O)N2C(C(=O)O)=C(S[C@@H]3CN[C@H](CNS(N)(=O)=O)C3)[C@H](C)[C@H]12` [doripenem, reference compound], the minimum inhibitory concentration (MIC) in test [1] (Klebsiella pneumoniae, read-out: MIC of doripenem alone) is above 64 µg/mL; in test [2] (Pseudomonas aeruginosa, read-out: MIC of doripenem alone) it was 64 µg/mL.

Take `O=C(O)C[C@@H]1CC[C@H](NC(=O)c2ccc(CN(Cc3ccccn3)Cc3ccccn3)nc2)B(O)O1` [Example 163, 2-((3R,6S)-3-(6-((Bis(pyridin-2-ylmethyl)amino)methyl)nicotinamido)-2-hydroxy-1,2-oxaborinan-6-yl)acetic acid]: the IC50 in the test with human hepG2 cells (setting [4]) is 100 µM.

On to `COC(=O)c1ccc(CN(Cc2ccccc2)Cc2ccccn2)nc1` [Example 186, methyl 6-((benzyl(pyridin-2-ylmethyl)amino)methyl)nicotinate], for which, in the test on human hepG2 cells (setting [5]), the IC50 was around 215 µM.

As for `O=C(Cc1ccc(-n2cc(CN(Cc3ccccn3)Cc3ccccn3)nn2)cc1)NC[C@H](O)CO` [Example 104, (S)-2-(4-(4-((bis(pyridin-2-ylmethyl)amino)methyl)-1H-1,2,3-triazol-1-yl)phenyl)-N-(2,3-dihydroxypropyl)acetamide], the IC50 in the test on human hepG2 cells (setting [5]) is 224 µM.

Regarding `OCc1ccc(CN(Cc2ccccn2)Cc2ccccn2)nc1` [Example 14, (6-((bis(pyridin-2-ylmethyl)amino)methyl)pyridin-3-yl) methanol], in test [3] (setting [6]), the MICx was 31 µM. In addition, the IC50 with human hepG2 cells (setting [5]) and with human hepG2 cells (setting [7]) was 12.4 µM in each case.

For `O=C(NCCc1ccc(-n2cc(CN(Cc3ccccn3)Cc3ccccn3)nn2)cc1)[C@H]1O[C@H](O)[C@H](O)[C@@H](O)[C@H]1O` [Example 101, (2S,3R,4S,5R,6S)—N-(4-(4-((Bis(pyridin-2-ylmethyl)amino)methyl)-1H-1,2,3-triazol-1-yl)phenethyl)-3,4,5,6-tetrahydroxytetrahydro-2H-pyran-2-carboxamide], the IC50 in the test with human hepG2 cells (setting [5]) was around 220 µM.

As for `OC[C@H]1OC(O)[C@H](n2cc(CN(Cc3ccccn3)Cc3ccccn3)nn2)[C@@H](O)[C@@H]1O` (stereo partly drawn) [Example 84, (3R,4R,5S,6R)-3-(4-((bis(pyridin-2-ylmethyl)amino)methyl)-1H-1,2,3-triazol-1-yl)-6-(hydroxymethyl)tetrahydro-2H-pyran-2,4,5-triol], the MICx in test [3] (setting [6]) was determined as 125 µM. Further, the IC50 is above 1000 µM in the test on human hepG2 cells (setting [5]) and 116 µM in the test with human hepG2 cells (setting [7]).

As for `O=C(c1ccc(CN(Cc2ccccn2)Cc2ccccn2)nc1)N1CCNCC1` [Example 105, (6-((bis(pyridin-2-ylmethyl)amino)methyl)pyridin-3-yl)(piperazin-1-yl)methanone], in test [3] (setting [6]), the MICx stood at 31 µM. The IC50 in the test on human hepG2 cells (setting [4]) is 100 µM; in the test on human hepG2 cells (setting [5]) it was around 210 µM.

For `O=C(CNCCc1ccc(NC(=O)CN(CCN(Cc2ccccn2)Cc2ccccn2)Cc2ccccn2)cc1)NCC(O)CO` (centres unmarked) [Example 108], in the test on human hepG2 cells (setting [5]), the IC50 is above 1000 µM.

On to `COC(=O)c1ccc(CN(Cc2ccccn2)Cc2ccccn2)nc1` [Example 12, methyl 6-((bis(pyridin-2-ylmethyl)amino)methyl)nicotinate], for which the MICx in test [3] was 31 µM. In addition, the IC50 in the test with human hepG2 cells (Homo sapiens, HepG2, 24 h) stood at 16.5 µM; with human hepG2 cells (setting [8]), 16.4 µM.

`O=C(O)CN1CCN(CC(=O)O)CCN([C@H](CO)[C@H](O)CO)CCN(CC(=O)O)CC1` [Butrol, reference compound]: the MICx in test [3] (estimated values (footnote c)) is 15^c μM. In addition, in the test with human hepG2 cells (estimated values (footnote c), read-out: IC50h), the IC50 is 60 µM.

With `NCc1ccc(CN(Cc2ccccn2)Cc2ccccn2)nc1` [Example 147, 1-(5-(aminomethyl)pyridin-2-yl)-N,N-bis(pyridin-2-ylmethyl) methanamine hydrochloride], the IC50 in the test on human hepG2 cells (Homo sapiens, HepG2, 24 h) was around 10 µM.

Turning to `O=C(Cc1ccc(-n2cc(CN(Cc3ccccn3)Cc3ccccn3)nn2)cc1)NC(CO)(CO)CO` [Example 98, 2-(4-(4-((bis(pyridin-2-ylmethyl)amino)methyl)-1H-1,2,3-triazol-1-yl)phenyl)-N-(1,3-dihydroxy-2-(hydroxymethyl)propan-2-yl)acetamide], in test [3] (setting [6]), the MICx came out at 125 µM. In addition, the IC50 with human hepG2 cells (setting [5]) and in the test with human hepG2 cells (setting [7]) was 259 µM in each case.

A word on the EC50: it is the concentration that produces a half-maximal response. The compound `c1ccc(CN(Cc2ccccn2)Cc2ccccn2)nc1` [TPA, N,N,N-tris(2-pyridylmethyl) amine, reference compound] gave an EC50 in the test with human hepG2 cells (Homo sapiens, HepG2) of 10 µM.

Turning to `O=C(NC[C@@H](O)CO)c1ccc(CN(Cc2ccccn2)Cc2ccccn2)nc1` [Example 97, (R)-6-((bis(pyridin-2-ylmethyl)amino)methyl)-N-(2,3-dihydroxypropyl)nicotinamide], the IC50 in the test with human hepG2 cells (setting [5]) amounted to 131 µM.

Take `CCOCCOCCOCCN(CCN(Cc1ccccn1)Cc1ccccn1)Cc1ccccn1` [Example 9, N1-(2-(2-(2-ethoxyethoxy)ethoxy)ethyl)-N1,N2,N2-tris(pyridin-2-ylmethyl)ethane-1,2-diamine]: the “Meropenem activity in presence of inhibitor” value in test [1] and in test [2] was at most 0.5 mg/L each time.

Turning to `O=C(O)CNC(=O)CNC(=O)c1ccc(CN(Cc2ccccn2)Cc2ccccn2)nc1` [Example 109], the IC50 in the test with human hepG2 cells (setting [5]) came out at 128 µM.

For the compound `O=C(NC(CO)(CO)CO)c1ccc(CN(Cc2ccccn2)Cc2ccccn2)nc1` [Example 103, 6-((bis(pyridin-2-ylmethyl)amino)methyl)-N-(1,3-dihydroxy-2-(hydroxymethyl)propan-2-yl)nicotinamide], the MICx in test [3] (setting [6]) was determined as 31 µM. Further, the IC50 in the test with human hepG2 cells (setting [5]) and with human hepG2 cells (setting [7]) was 67.6 µM in each case.

Regarding `O=C(CN(CCN(Cc1ccccn1)Cc1ccccn1)Cc1ccccn1)Nc1ccc(CCNC(=O)c2cnccn2)cc1` [Example 27, N-(4-(2-((2-(bis(pyridin-2-ylmethyl)amino)ethyl)(pyridin-2-ylmethyl)amino)acetamido)phenethyl)pyrazine-2-carboxamide], the results for the “Meropenem activity in presence of inhibitor” value in test [1] and in test [2] were 0.125 mg/L and 1 mg/L, respectively.

For the compound `O=C(CN(CCN(Cc1ccccn1)Cc1ccccn1)Cc1ccccn1)Nc1ccc(CC(=O)NC(CO)(CO)CO)cc1` [Example 24, 2-((2-(bis(pyridin-2-ylmethyl)amino)ethyl)(pyridin-2-ylmethyl)amino)-N-(4-(2-(1,3-dihydroxy-2-(hydroxymethyl)propan-2-ylamino)-2-oxoethyl)phenyl)acetamide], the MICx in test [3] (setting [6]) was determined as 31 µM. The IC50 in the test with human hepG2 cells (setting [7]) is 60 µM.

Regarding `CN[C@H](CC(C)C)C(=O)N[C@H]1C(=O)N[C@@H](CC(N)=O)C(=O)N[C@H]2C(=O)N[C@H]3C(=O)N[C@H](C(=O)N[C@H](C(=O)O)c4cc(O)cc(O)c4-c4cc3ccc4O)[C@H](O)c3ccc(c(Cl)c3)Oc3cc2cc(c3O[C@@H]2O[C@H](CO)[C@@H](O)[C@H](O)[C@H]2O[C@H]2C[C@](C)(N)[C@H](O)[C@H](C)O2)Oc2ccc(cc2Cl)[C@H]1O` [Vancomycin, reference compound], the MICx in test [3] was > 1000^d μM. For the same compound, the IC50 with human hepG2 cells (setting [8]) is 20 µM.

`CN(C[C@H](O)[C@@H](O)[C@H](O)[C@H](O)CO)C(=O)Cc1ccc(-n2cc(CN(Cc3ccccn3)Cc3ccccn3)nn2)cc1` [Example 96, 2-(4-(4-((bis(pyridin-2-ylmethyl)amino)methyl)-1H-1,2,3-triazol-1-yl)phenyl)-N-methyl-N-((2S,3R,4R,5R)-2,3,4,5,6-pentahydroxyhexyl)acetamide]: the MICx in test [3] (setting [6]) was 125 µM. Also, the IC50 in the test with human hepG2 cells (setting [5]) is above 1000 µM; with human hepG2 cells (setting [7]), at least 118 µM.

On to `OC1O[C@H](Cn2cc(CN(CCN(Cc3ccccn3)Cc3ccccn3)Cc3ccccn3)nn2)[C@H](O)[C@H](O)[C@H]1O` (some centres unmarked) [Example 91], for which the MICx in test [3] (setting [6]) is 31 µM. Also, the IC50 in the test on human hepG2 cells (setting [5]) and with human hepG2 cells (setting [7]) was 165 µM throughout.

Consider `CC(=O)OC[C@H]1OC(OC(C)=O)[C@H](NC(=O)Cc2ccc(NC(=O)CN(CCN(Cc3ccccn3)Cc3ccccn3)Cc3ccccn3)cc2)[C@@H](OC(C)=O)[C@@H]1OC(C)=O` (stereo partly drawn) [Example 22a, (3R,4R,5S,6R)-6-(acetoxymethyl)-3-(2-(4-(2-((2-(bis(pyridin-2-ylmethyl)amino)ethyl)(pyridin-2-ylmethyl)amino)acetamido)phenyl)acetamido) tetrahydro-2H-pyran-2,4,5-triyltriacetate], for which the results for the “Meropenem activity in presence of inhibitor” value in test [1] and in test [2] were 0.25 mg/L and 1 mg/L, respectively.
